US7910622B2, “Modulation of bacterial quorum sensing with synthetic ligands” (Wisconsin Alumni Research Foundation, priority 2007, dated 2011)

Experiments:
Test in all cases: cell-based
TraR = biological target: T1, TraR (Agrobacterium tumefaciens, UniProt P33905); conditions: for A. tumefaciens-TraR Activation [%]: 10 μM ligand; for A. tumefaciens-TraR Activation [%] / A. tumefaciens-TraR Inhibition [%] / inhibition at 10 µM: A. tumefaciens WCF47 (pCF372), normalized to OOHL; for A. tumefaciens-TraR Inhibition [%]: 10 μM synthetic ligand against 100 nM OOHL; for activation at 10 µM: read-out: A. tumefaciens-TraR Activation [%]; for inhibition at 10 µM: read-out: A. tumefaciens-TraR Inhibition [%], 10 μM synthetic ligand against 100 nM OOHL
T1 construct: These strains lack their AHL synthase (I) genes, but retain their native R genes; endogenous in cells; host or cells: A. tumefaciens WCF47 (Δ-traI) with PtraI-lacZ plasmid pCF372
T1 sequence (P33905 whole entry): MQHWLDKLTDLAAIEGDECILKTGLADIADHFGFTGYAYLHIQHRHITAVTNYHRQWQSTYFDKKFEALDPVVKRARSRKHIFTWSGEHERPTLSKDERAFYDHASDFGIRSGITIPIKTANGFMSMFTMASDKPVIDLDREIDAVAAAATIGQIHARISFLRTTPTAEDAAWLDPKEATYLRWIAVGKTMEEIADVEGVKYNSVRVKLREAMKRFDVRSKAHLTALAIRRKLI
Procedure: A. tumefaciens reporter gene assay protocols. […] An overnight culture of A. tumefaciens WCF47 (pCF372) was diluted to an OD600 of 0.1 in fresh AB minimal medium containing 400 μg/mL octopine and 50 μg/mL streptomycin. A 200 μL-portion of the diluted culture was added to each well of the multititer plate containing AHLs. Plates were grown at 28° C. for 18-20 h in a rotary shaking incubator (200 rpm). The cultures were then assayed for β-galactosidase activity following the Miller assay method. Briefly, 200 μL aliquots of bacteria from each of the wells were added to wells of a polystyrene 96-well plate and the OD600 of each well was recorded. Next, 50 μL aliquots from each well were transferred to a solvent resistant 96-well plate containing 200 μL Z buffer, 8 μL CHCl3 and 4 μL 0.1% aq. sodium dodecylsulfate (SDS). This suspension was mixed via repetitive pipetting, after which the CHCl3 was allowed to settle. A 100-μL aliquot from each well was transferred to a fresh polystyrene 96-well plate, and 20 μL of substrate, o-nitrophenyl-β-D-galactopyranoside (ONPG, 4 μg/mL in phosphate buffer), was added at time zero. After the development of appropriate yellow color (ca. 15-35 min), the reaction was terminated by the addition of 50 μL of 1 M Na2CO3. Absorbance at 420 nm and 550 nm was measured for each well using a plate reader, and Miller units were calculated according to standard methods.
(§1) Dose response reporter gene assays. […] IC50 and EC50 values were calculated using GraphPad Prism software (v. 4.0) using a sigmoidal curve fit.
A. tumefaciens reporter gene assay protocols. […] An overnight culture of A. tumefaciens WCF47 (pCF372) was diluted 1:10 with fresh AB minimal medium containing 400 μg/mL octopine and 50 μg/mL streptomycin. A 200 μL portion of the diluted culture was added to each well of the multititer plate containing AHLs. Plates were incubated at 28° C. for 18-24 h. The cultures were then assayed for β-galactosidase activity following the Miller assay method. Briefly, 200 μL aliquots of bacteria from each of the wells were added to wells of a 96-well multititer plate, and the OD600 of each well was recorded. Next, 50 μL aliquots from each well were transferred to a solvent resistant 96-well multititer plate containing 200 μL Z buffer, 8 μL CHCl3 and 4 μL 0.1% aq. SDS. This suspension was mixed via repetitive pipetting, after which the CHCl3 was allowed to settle. A 100 μL aliquot from each well was transferred to a fresh 96-well multititer plate, and 20 μL of substrate, o-nitrophenyl-β-D-galactopyranoside (ONPG, 4 μg/mL in phosphate buffer), was added at time zero. After the development of appropriate yellow color (ca. 20-30 min), the reaction was terminated by the addition of 50 μL of 1 M Na2CO3. Absorbances at 420 nm and 550 nm were measured for each well using a plate reader, and Miller units were calculated according to standard methods.
as §1

LuxR [1] = biological target: T2, LuxR (Aliivibrio fischeri, UniProt P35327); parameters: species or system Vibrio fischeri; conditions: for V. fischeri-LuxR Activation [%]: 200 μM ligand; for V. fischeri-LuxR Activation [%] / activation at 200 µM: V. fischeri ES114 (Δ-luxI), normalized to OHHL; for activation at 200 µM: read-out: V. fischeri-LuxR Activation [%], 200 μM ligand
T2 construct: a Δ-luxI derivative of V. fischeri ES114, in which the native lux operon behaves as the bioluminescent reporter; endogenous in cells; host or cells: V. fischeri ES114 (Δ-luxI)
T2 sequence (P35327 whole entry): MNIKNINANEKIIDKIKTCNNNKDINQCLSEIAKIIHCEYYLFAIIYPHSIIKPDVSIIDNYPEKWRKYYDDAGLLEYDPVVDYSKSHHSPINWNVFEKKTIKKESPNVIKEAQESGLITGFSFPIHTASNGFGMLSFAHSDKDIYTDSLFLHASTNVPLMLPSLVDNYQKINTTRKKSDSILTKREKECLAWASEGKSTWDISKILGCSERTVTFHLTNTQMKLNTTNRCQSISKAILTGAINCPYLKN
Procedure: (§2) Luminescence assays. For agonism assays, an appropriate amount of AHL stock solution was added into a 96-well plate. An overnight culture of E. coli or V. fischeri was diluted 1:10 with appropriate media (LB plus 10 μg/mL tetracycline for E. coli; LBS for V. fischeri). A 200-μL portion of the diluted culture was added to each well of the plate. Plates were grown for 4-8 h with shaking (200 rpm; 30° C. for E. coli and RT for V. fischeri). Luminescence was measured using a multilabel plate reader and normalized to cell density. […] All assays were performed in triplicate. Graphpad Prism software was used to calculate IC50 and EC50 values.
(§3) Vibrio fischeri assay procedures. […] An overnight culture of V. fischeri ES114 (WT, Δ-luxI or Δ-luxR) was diluted 1:10 with LBS medium. A-200 μL portion of the diluted culture was added to each well of the plate. Plates were grown at RT with shaking (200 rpm) until the OD600=0.35-0.4 (4-6 h). Luminescence then was measured and normalized to cell density per well. […] All assays were performed in triplicate. IC50 and EC50 values were calculated using GraphPad Prism software using a sigmoidal curve fit.
(§4) V. fischeri reporter gene assay protocols. […] An overnight culture of V. fischeri ES114 (D-luxI) was diluted 1:10 with LBS medium. A 200-μL portion of the diluted culture was added to each well of the multititer plate. Plates were grown at RT with shaking (200 rpm) until the OD600=0.35-0.4 (4-6 h). Luminescence then was measured and normalized to cell density per well.
as §1
as §4, with “(Δ-luxI)” for “(D-luxI)”, “A200 μL” for “A 200-μL”, “incubated” for “grown”, “RT” for “RT with shaking (200 rpm)”
as §1

LuxR [2] = biological target: T2, LuxR; format: cell-based, Vibrio fischeri; conditions: for V. fischeri-LuxR Inhibition [%]: 5 μM synthetic ligand against 5 μM OHHL; for V. fischeri-LuxR Inhibition [%] / inhibition at 5 µM: V. fischeri ES114 (Δ-luxI), normalized to OHHL; for IC50: LuxR IC50, determined against 5 μM OHHL; for inhibition at 5 µM: read-out: V. fischeri-LuxR Inhibition [%], 5 μM synthetic ligand against 5 μM OHHL
Procedure: as §2, §3, §4, §1
as §4, with “(Δ-luxI)” for “(D-luxI)”, “A200 μL” for “A 200-μL”, “incubated” for “grown”, “RT” for “RT with shaking (200 rpm)”
as §1

LasR [3] = biological target: T3, LasR (Pseudomonas aeruginosa, UniProt P25084); conditions: for E. coli-LasR Activation [%]: 5 μM ligand; for E. coli-LasR Activation [%] / activation at 5 µM: E. coli DH5α (pJN105L pSC11), normalized to OdDHL; for activation at 5 µM: read-out: E. coli-LasR Activation [%], 5 μM ligand
T3 construct: expressed in transfected cells; host or cells: E. coli DH5α (pJN105L pSC11), arabinose-induced
T3 sequence (P25084 whole entry): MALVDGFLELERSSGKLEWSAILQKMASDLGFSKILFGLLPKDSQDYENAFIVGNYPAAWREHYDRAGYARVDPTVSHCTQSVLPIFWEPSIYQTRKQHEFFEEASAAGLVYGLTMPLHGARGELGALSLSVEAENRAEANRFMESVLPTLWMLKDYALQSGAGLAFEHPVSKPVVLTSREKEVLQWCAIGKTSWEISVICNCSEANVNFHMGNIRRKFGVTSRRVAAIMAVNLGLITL
Procedure: (§5) E. coli LasR reporter gene assay protocols. […] An overnight culture of E. coli DH5a (pJN105L pSC11) grown at 37° C. was subculture by diluting 1/10 in fresh LB medium containing 100 μg/mL ampicillin and 15 μg/mL gentamicin and shaking at 37° C. until OD600=0.3. Arabinose (4 mg/mL) was then added to induce the LasR promoter and a 200 μL-portion of this culture was added to each well of the multititer plate containing AHLs. Plates were grown at 37° C. for 2 hours in a rotary shaking incubator (200 rpm; OD600=0.45). The cultures were then assayed for activity following the identical β-galactosidase assay protocols used in the A. tumefaciens reporter gene assays.
as §1
(§6) E. coli LasR reporter gene assay protocols. […] An overnight culture of E. coli DH5α (pJN105L pSC11) was diluted 1:10 with fresh LB medium containing 100 μg/mL ampicillin and 15 μg/mL gentamicin. This sub-culture was incubated at 37° C. until OD600=0.3 (4-6 h). Arabinose (4 mg/mL) was then added to induce the LasR promoter, and a 200 μL portion of this culture was added to each well of the multititer plate containing AHLs. Plates were incubated at 37° C. until OD600=0.45 (4-6 h). The cultures were then assayed for LasR activity following the identical β-galactosidase assay protocols used in the A. tumefaciens reporter gene assays (see above).
as §1

LasR [4] = biological target: T3, LasR; format: cell-based; conditions: for E. coli-LasR Inhibition [%]: 5 μM synthetic ligand against 7.5 nM OdDHL; for E. coli-LasR Inhibition [%] / inhibition at 5 µM: E. coli DH5α (pJN105L pSC11), normalized to OdDHL; for inhibition at 5 µM: read-out: E. coli-LasR Inhibition [%], 5 μM synthetic ligand against 7.5 nM OdDHL
Procedure: as §5, §1, §6, §1

Compound | A. tumefaciens-TraR Activation [%] (TraR) | A. tumefaciens-TraR Inhibition [%] (TraR) | V. fischeri-LuxR Activation [%] (LuxR [1]) | V. fischeri-LuxR Inhibition [%] (LuxR [2]) | E. coli-LasR Activation [%] (LasR [3]) | E. coli-LasR Inhibition [%] (LasR [4]) | other results
CCCCCCCCCCCS(=O)(=O)N[C@H]1CCOC1=O [A16] | 0% | 29% | 1% | 74% | 0% | 21% | –
4-hydroxy PHL [B27] | 0% | 3% | 2% | 12% | 0% | 7% | –
CC(C)(C)OC(=O)NCCCCC(=O)N[C@H]1CCOC1=O [A22] | 0% | 10% | 2% | 47% | 3% | 15% | –
CCCCCCC(=O)NC1CCOC1=O (stereo not shown) [compound 4] | – | – | – | – | – | – | IC50 (TraR): 690 nM; activation at 10 µM (TraR): 4%; inhibition at 10 µM (TraR): ~90%; activation at 200 µM (LuxR [1]): ~25%; IC50 (LuxR [2]): 1360 nM; inhibition at 5 µM (LuxR [2]): ~76%; activation at 5 µM (LasR [3]): 0%; inhibition at 5 µM (LasR [4]): ~25%
CCOc1ccc(CC(=O)N[C@H]2CCOC2=O)cc1 [B29] | 0% | 35% | 2% | 55% | 0% | 15% | –
4-amino PHL [C21] | – | – | – | – | – | – | Activation (%) (TraR; A. tumefaciens-TraR, Library C primary agonism screen): 0%; Inhibition (%) (TraR; A. tumefaciens-TraR, Library C primary antagonism screen): 5%; Activation (%) (LuxR [1]; V. fischeri-LuxR, Library C primary agonism screen): 3%; Inhibition (%) (LuxR [2]; V. fischeri-LuxR, Library C primary antagonism screen): 12%; Activation (%) (LasR [3]; E. coli-LasR, Library C primary agonism screen): 0%; Inhibition (%) (LasR [4]; E. coli-LasR, Library C primary antagonism screen): 8%
Nc1ccc(CC(=O)N[C@H]2CCOC2=O)cc1 [11v, 4-amino PHL] | – | – | – | lowest inhibitory activities | – | – | –
O=C(Cc1ccc(-c2ccccc2)cc1)N[C@H]1CCOC1=O [11q, 4-phenyl PHL] | – | – | – | – | – | – | inhibition at 5 µM (LuxR [2]): ~80%
O=C(CCCc1ccccc1)N[C@@H]1CCOC1=O [D-3] | – | – | – | ca. 20% | – | – | –
CCCCCC(=O)CC(=O)N[C@H]1CCOC1=O [compound 1, N-(3-oxo-octanoyl)-L-homoserine lactone, reference compound] | – | – | – | – | – | 50% | EC50 (TraR; EC50 of autoinducer in A. tumefaciens WCF47 (pCF372), value in method text): 100 nM; EC50 (TraR; TraR EC50): 200 nM; activation at 10 µM (TraR): 100%; activation at 200 µM (LuxR [1]): ~25%; inhibition at 5 µM (LuxR [2]): 63%; IC50 (LasR [4]; determined against 7.5 nM OdDHL, read-out: LasR IC50): 110 nM; inhibition at 5 µM (LasR [4]): ≥ 50%
CCCCCCCCCC(=O)CC(=O)N[C@H]1CCOC1=O [A8, N-(3-oxo-dodecanoyl)-L-homoserine lactone, reference compound] | – | – | – | – | – | – | IC50 (LuxR [2]): 400 nM
4-azido PHL [B20] | 0% | – | 5% | – | 0% | 19% | –
O=C(Cc1ccc(O)cc1)N[C@H]1CCOC1=O [11w, 4-hydroxy PHL] | – | – | – | lowest inhibitory activities | – | – | –
O=C(Cc1ccc(Br)cc1)N[C@@H]1CCOC1=O [D-5] | – | – | – | ca. 20% | – | – | –
CCCC(=O)CC(=O)N[C@H]1CCOC1=O [compound 3] | – | – | – | – | – | – | activation at 10 µM (TraR): 1%; inhibition at 10 µM (TraR): 89%; EC50 (LuxR [1]; LuxR EC50, V. fischeri ES114 (Δ-luxI)): 3000 nM; activation at 200 µM (LuxR [1]): 100%; activation at 5 µM (LasR [3]): 1%; inhibition at 5 µM (LasR [4]): 15%
O=C(Cc1ccc(C(F)(F)F)cc1)N[C@H]1CCOC1=O [11s, 4-trifluoromethyl PHL] | – | – | – | – | – | – | IC50 (LuxR [2]): 600 nM; inhibition at 5 µM (LuxR [2]): ~80%
O=C(CCCc1ccccc1)N[C@@H]1CCOC1=O [A26] | 0% | 31% | 3% | 41% | 0% | – | –
O=C(Cc1ccccc1)N[C@H]1CCOC1=O [11a] | – | – | – | abolished inhibitory activity | – | – | –
O=C(CC(=O)N[C@@H]1CCOC1=O)Cc1ccccc1 [A25] | 2% | 50% | 3% | – | 84% | −7% | EC50 (LasR [3]; read-out: LasR EC50): 540 nM
